According to patent US6825178B1, “Methods and products for treating pseudomonas infection” (The Brigham and Women's Hospital, Inc., priority 1996, dated 2004):
Marks after values point to notes of the source that are not given here.

How the values were obtained:
WI-38 cells = assay: Inhibition of internalization of P. aeruginosa strain PAO1 into WI-38 cells; format: cell-based, human; details: strain PAO1, WI 38 cells, 1 nM peptide
Description: (§1) WI-38 (human diploid lung cell line, ATCC. no. CCL-75) and A549 cells (human lung carcinoma cells, ATCC no. CCL-185) were obtained from the ATCC and grown according to their instructions.
(§2) Bacterial ingestion assay. Cells were released from monolayers in tissue culture flasks by 5 min. of incubation with trypsin-versene mixture (BioWhitaker, Walkersville, Md.), washed, counted and seeded into 96-well tissue culture plates at 10^5 cells/well in supplemented F-12 medium and incubated at 37° C. in 5% CO2. Fresh cultures of P. aeruginosa grown overnight at 37° C. on a tryptic soy agar plate were suspended in supplemented F-12 medium to prepare the bacterial inoculum. Then 10^6 colony forming units (cfu) of the bacterial inoculum were added per well of 10^5 epithelial cells. […] Three to 9 replicates were obtained per point, and analyzed using analysis of variance (ANOVA) and the Fisher PLSD statistic to determine pairwise differences.
(§3) Inhibition of ingestion in the presence of membranes isolated from C127 cells, monoclonal antibodies to extracellular domains of CFTR, or synthetic peptides corresponding to the first or fourth extracellular domains of CFTR was evaluated by adding these materials to the bacteria prior to adding them directly into wells for evaluation of bacterial uptake. […]

A549 cells = assay: Inhibition of internalization of P. aeruginosa strain PAO1 into A549 cells; format: cell-based, human; details: 1 nM peptide
Description: as §1, §2, §3

[1] = tested on: P. aeruginosa strain PAO1; assay: Neonatal mouse model of infection, CFTR peptide added to bacterial inoculum; format: in vivo; details: 7-day old mice, 10 nM peptide added to PAO1 inoculum, intranasal, 24 hours after infection; for Median cfu (10th-90th percentile cfu) P. aeruginosa internalized per mg. lung tissue: gentamicin-exclusion
Description: Neonatal mouse model of infection. Seven-day old neonatal Balb/c mice were infected with ˜10^8 cfu of stain PAO1 delivered intranasally as described, with the addition of 10 nM of a synthetic peptide corresponding to either the first or fourth extracellular domains of CFTR to the bacterial inoculum. Twenty-four hours later 7 animals were killed, right and left lungs removed, weighed and dispersed into single cell suspensions by grinding through a fine-mesh wire screen. An aliquot was removed, Triton X-100 added to a final concentration of 0.5% to release intracellular bacteria and the total cfu of bacteria present in each lung determined. The remaining portion of the lung cell suspension was treated with 300 μg gentamicin/ml for 60 minutes to kill extracellular P. aeruginosa. The cells were then pelleted in a centrifuge (400×g, 10 minutes), washed twice in RPMI medium, and resuspended in 200 μl of 0.5% Triton X-100 to release intracellular bacteria that survived the gentamicin treatment. These suspensions were diluted and plated for bacterial enumeration. The cfu per milligram lung weight was calculated and differences among groups analyzed by nonparametric statistics (Mann-Whitney U test) due to outliers in some groups.
To confirm that binding and internalization of P. aeruginosa by the first predicted extracellular domain of CFTR is important in resistance to lung infection, 7-day old Balb/c mice were nasally inoculated with 10^8 cfu of P. aeruginosa stain PAO1 mixed with either 10 nM of the peptide corresponding to the first or fourth predicted extracellular domains of CFTR and the course of bacterial infection was followed for over 24 hours. […] Thus, inhibiting P. aeruginosa internalization by blocking the bacterial interaction with CFTR in the lung leads to increased bacterial counts in this tissue, indicating an important mechanism for clearance of P. aeruginosa from the lung following inhalation of these organisms.

[2] = listed as First extracellular domain
[3] = listed as first extracellular domain peptide
[4] = listed as Fourth extracellular domain

Sequence	Mean cfu (standard deviation) of P. aeruginosa internalized (WI-38 cells)	Mean cfu (standard deviation) of P. aeruginosa internalized (A549 cells)	Median cfu (10th-90th percentile cfu) P. aeruginosa internalized per mg. lung tissue [1, 2]	Median cfu (10th-90th percentile cfu) P. aeruginosa internalized per mg. lung tissue [1, 3]	Median cfu (10th-90th percentile cfu) P. aeruginosa total per mg. lung tissue [1, 2]	Median cfu (10th-90th percentile cfu) P. aeruginosa total per mg. lung tissue [1, 3]	Median cfu (10th-90th percentile cfu) P. aeruginosa internalized per mg. lung tissue [1, 4]	Median cfu (10th-90th percentile cfu) P. aeruginosa internalized per mg. lung tissue ([1]; listed as fourth extracellular domain peptide)	Median cfu (10th-90th percentile cfu) P. aeruginosa total per mg. lung tissue [1, 4]	Median cfu (10th-90th percentile cfu) P. aeruginosa total per mg. lung tissue ([1]; listed as fourth predicted extracellular domain)
GRIIASYDPDNKEER (listed as Homo Sapiens) [First domain]	3.497 × 10^4 (3.751 × 10^3)^a cfu	3.2833 × 10^4 (4.32 × 10^3)^a cfu	0 (0-278) cfu per mg lung tissue	virtually no internalized P. aeruginosa	152,419 (37,860-519,612) cfu per mg lung tissue	~1.5×10^5 cfu per mg lung tissue	–	–	–	–
LWLLGNTPLQDKGNSTHSRNNSYAVIITSTS (listed as Homo Sapiens) [Fourth domain, reference compound]	7.3433 × 10^4 (9.124 × 10^3) cfu	8.7333 × 10^4 (1.1506 × 10^4) cfu	–	–	–	–	13,246 (3,578-49,558) cfu per mg lung tissue	> 10^4 cfu per mg lung tissue	20,450 (4,000-61,008) cfu per mg lung tissue	~2×10^4 cfu per mg lung tissue
